Tests used:
Type in all cases: biochemical
HDAC3 = target: T1, HDAC3 (Homo sapiens, UniProt O15379); assay: HDAC assay from Reaction Biology, fluorogenic substrate; conditions: 10-dose response curve; read-out: Compound IC50 HDAC3
T1 construct: purchased Reaction Biology
Protocol: (§1) Compounds 1 and 3 were tested in a HDAC assay from Reaction Biology® against 10 different HDACs.
(§2) Base Reaction buffer: 50 mM Tris-HCl, pH8.0, 137 mM NaCl, 2.7 mM KCl, and 1 mM MgCl2,
(§3) Add fresh: 1 mg/ml BSA, 1% DMSO
(§4) Fluorogenic HDAC General Substrate (HDAC1, HDAC2, HDAC3, HDAC6, HDAC10, and HDAC11): 50 μM, Arg-His-Lys-Lys(Ac)-AMC
(§5) • (HDAC8 only substrate: 50 μM, Arg-His-Lys(Ac)-Lys(Ac))-AMC Class2A Substrate (HDAC4, HDAC5, HDAC7, and HDAC9): Boc-Lys(trifluoroacetyl)-AMC For SIRTs 1-3, general Class1 HDAC substrate and 500 μM NAD+ For SIRT5, Ac-Lys-succ and 500 μM NAD+ Reaction Procedure Deacetylation Step • 1. Delivered 2× enzyme in wells of reaction plate except in the control wells and added buffer to control wells. • 2. Delivered compounds in 100% DMSO into the enzyme mixture by Acoustic technology (Echo550; nanoliter range). Spin down and pre-incubation. • 3. Delivered 2× Substrate Mixture (Fluorogenic HDAC Substrate and co-factor if applicable) in all reaction wells to initiate the reaction. Spin and shake. • 4. Incubated for 30 min for Class 2A, 1 hr for HDAC1, 2, 3, and 6, and 2 hr for the rest of HDACs and SIRTs at 30° C. with seal. Development Step • 5. Added Developer with Trichostatin A (or Nicotinamide for SIRTs) to stop the reaction and to generate fluorescent color. • 6. The fluorescence that was generated was detected with excitation (Ex) at […] and emission (Em) at 460 nM by the EnVision Multilabel Plate Reader (PerkinElmer®, Santa Clara, CA, USA). • 7. IC50 values, presented in Table 1, were derived from a 10-dose response curve.

HDAC1 = target: T2, HDAC1 (Homo sapiens, UniProt Q13547); assay: as above; conditions: 10-dose response curve; read-out: Compound IC50 HDAC1
T2 construct: purchased Reaction Biology
Protocol: as §1, §2, §3, §4, §5

HDAC2 = target: T3, HDAC2 (Homo sapiens, UniProt Q92769); assay: as above; conditions: 10-dose response curve; read-out: Compound IC50 HDAC2
T3 construct: purchased Reaction Biology
Protocol: as §1, §2, §3, §4, §5

HDAC6 = target: T4, HDAC6 (Homo sapiens, UniProt Q9UBN7); assay: as above; parameters: purchased Reaction Biology; conditions: 10-dose response curve; read-out: Compound IC50 HDAC6
T4 sequence (Q9UBN7 1-1215): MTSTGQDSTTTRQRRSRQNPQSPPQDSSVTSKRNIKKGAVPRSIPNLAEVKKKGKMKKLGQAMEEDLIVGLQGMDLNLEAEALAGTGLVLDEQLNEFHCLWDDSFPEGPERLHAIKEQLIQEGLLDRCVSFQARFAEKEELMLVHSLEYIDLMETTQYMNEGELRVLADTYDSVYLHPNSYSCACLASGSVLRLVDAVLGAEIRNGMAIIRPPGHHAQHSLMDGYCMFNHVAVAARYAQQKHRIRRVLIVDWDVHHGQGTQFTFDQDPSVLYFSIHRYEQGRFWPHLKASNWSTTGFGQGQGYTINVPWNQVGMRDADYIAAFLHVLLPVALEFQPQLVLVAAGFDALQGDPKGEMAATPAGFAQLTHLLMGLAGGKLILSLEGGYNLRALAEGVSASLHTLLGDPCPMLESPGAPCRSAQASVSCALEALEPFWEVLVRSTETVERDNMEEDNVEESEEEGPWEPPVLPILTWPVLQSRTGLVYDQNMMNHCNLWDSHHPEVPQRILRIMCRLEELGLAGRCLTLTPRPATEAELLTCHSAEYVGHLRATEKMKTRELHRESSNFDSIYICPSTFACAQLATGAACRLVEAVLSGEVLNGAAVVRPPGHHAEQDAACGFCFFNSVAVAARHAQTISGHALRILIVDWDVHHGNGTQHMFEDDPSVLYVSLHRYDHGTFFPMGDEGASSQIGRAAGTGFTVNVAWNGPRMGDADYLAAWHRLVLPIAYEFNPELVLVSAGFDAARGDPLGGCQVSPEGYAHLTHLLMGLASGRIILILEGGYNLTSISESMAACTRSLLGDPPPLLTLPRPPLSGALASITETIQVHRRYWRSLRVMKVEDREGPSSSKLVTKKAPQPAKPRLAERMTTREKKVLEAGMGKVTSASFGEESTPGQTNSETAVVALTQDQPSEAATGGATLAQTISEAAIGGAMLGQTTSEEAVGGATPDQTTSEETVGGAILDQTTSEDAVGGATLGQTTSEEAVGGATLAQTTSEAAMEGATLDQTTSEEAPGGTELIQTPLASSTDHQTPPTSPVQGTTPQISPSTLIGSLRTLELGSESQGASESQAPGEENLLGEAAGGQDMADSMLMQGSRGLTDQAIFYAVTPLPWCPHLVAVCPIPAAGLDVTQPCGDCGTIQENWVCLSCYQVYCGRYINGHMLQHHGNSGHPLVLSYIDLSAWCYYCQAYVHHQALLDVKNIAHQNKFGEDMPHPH
Protocol: as §1, §2, §3, §4
as §5, with “Added Developer with Trichostatin A (or Nicotinamide for SIRTs) to stop the reaction and to generate fluorescent color. • 6.” left out, “IC50 values, presented in Table 1, were derived from a 10-dose response curve.” left out

HDAC8 = target: T5, HDAC8 (Homo sapiens, UniProt Q9BY41); assay: HDAC assay from Reaction Biology, HDAC8 substrate; conditions: 10-dose response curve; read-out: Compound IC50 HDAC8
T5 construct: purchased Reaction Biology
T5 sequence (Q9BY41 1-377): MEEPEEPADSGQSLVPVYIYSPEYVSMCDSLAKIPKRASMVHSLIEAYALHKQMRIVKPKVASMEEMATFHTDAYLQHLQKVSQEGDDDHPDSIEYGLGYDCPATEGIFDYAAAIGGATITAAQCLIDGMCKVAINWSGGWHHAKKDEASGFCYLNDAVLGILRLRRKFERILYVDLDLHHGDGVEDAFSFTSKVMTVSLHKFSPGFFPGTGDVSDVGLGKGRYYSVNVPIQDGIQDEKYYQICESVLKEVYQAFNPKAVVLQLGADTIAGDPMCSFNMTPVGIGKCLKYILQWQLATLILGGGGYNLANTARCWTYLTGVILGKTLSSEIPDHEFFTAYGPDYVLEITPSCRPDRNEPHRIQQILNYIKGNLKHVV
Protocol: as §1, §2, §3
as §5, with “IC50 values, presented in Table 1, were derived from a 10-dose response curve.” left out

HDAC5 = target: T6, HDAC5 (Homo sapiens, UniProt Q9UQL6); assay: HDAC assay from Reaction Biology, Class2A substrate; conditions: 10-dose response curve; read-out: Compound IC50 HDAC5
T6 construct: purchased Reaction Biology
Protocol: as §1, §2, §3
as §5, with “IC50 values, presented in Table 1, were derived from a 10-dose response curve.” left out

T6 sequence (Q9UQL6 whole entry): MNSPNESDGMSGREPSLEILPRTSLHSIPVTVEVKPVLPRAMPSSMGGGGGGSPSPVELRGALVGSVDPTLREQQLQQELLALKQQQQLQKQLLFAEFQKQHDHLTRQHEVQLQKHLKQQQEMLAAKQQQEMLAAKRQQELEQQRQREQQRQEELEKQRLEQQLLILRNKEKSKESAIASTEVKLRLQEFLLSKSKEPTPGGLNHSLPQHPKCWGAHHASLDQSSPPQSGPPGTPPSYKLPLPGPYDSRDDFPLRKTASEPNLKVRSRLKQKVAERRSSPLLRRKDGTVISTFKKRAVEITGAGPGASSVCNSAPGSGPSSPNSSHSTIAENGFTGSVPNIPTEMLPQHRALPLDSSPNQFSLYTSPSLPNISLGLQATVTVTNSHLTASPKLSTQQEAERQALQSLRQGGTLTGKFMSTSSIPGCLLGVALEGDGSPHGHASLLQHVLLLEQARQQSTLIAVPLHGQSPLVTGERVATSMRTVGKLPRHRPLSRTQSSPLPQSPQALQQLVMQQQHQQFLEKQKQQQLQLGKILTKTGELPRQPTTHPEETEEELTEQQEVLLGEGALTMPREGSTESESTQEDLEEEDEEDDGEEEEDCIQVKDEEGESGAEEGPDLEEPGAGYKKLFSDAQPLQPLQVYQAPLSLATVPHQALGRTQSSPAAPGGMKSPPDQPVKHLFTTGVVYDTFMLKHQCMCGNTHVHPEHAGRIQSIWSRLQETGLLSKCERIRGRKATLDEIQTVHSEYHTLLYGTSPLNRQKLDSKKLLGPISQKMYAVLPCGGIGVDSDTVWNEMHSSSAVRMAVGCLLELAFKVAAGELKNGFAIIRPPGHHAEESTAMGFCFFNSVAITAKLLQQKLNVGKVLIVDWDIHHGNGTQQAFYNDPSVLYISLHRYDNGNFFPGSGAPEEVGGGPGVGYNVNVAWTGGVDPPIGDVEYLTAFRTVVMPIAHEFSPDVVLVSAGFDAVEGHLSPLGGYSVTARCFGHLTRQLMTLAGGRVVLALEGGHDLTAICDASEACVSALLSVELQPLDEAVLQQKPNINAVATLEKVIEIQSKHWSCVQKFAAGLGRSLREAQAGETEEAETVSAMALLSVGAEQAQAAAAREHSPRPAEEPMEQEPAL
T1 sequence (O15379 whole entry): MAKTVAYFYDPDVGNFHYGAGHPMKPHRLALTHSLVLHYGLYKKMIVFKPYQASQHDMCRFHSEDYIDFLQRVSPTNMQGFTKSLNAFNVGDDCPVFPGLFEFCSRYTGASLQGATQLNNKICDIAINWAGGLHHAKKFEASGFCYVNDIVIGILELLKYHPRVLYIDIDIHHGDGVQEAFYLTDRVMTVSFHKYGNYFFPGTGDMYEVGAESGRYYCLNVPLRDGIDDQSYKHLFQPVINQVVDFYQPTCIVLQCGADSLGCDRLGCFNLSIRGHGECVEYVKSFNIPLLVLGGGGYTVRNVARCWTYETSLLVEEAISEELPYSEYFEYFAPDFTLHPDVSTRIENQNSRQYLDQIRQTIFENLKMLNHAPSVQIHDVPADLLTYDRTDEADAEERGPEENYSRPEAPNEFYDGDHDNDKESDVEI
T1 sequence (Q9Y618 395-489 partner limits assumed): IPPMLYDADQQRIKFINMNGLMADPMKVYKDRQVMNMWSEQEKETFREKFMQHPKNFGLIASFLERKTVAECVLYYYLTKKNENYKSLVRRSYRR
T2 sequence (Q13547 whole entry): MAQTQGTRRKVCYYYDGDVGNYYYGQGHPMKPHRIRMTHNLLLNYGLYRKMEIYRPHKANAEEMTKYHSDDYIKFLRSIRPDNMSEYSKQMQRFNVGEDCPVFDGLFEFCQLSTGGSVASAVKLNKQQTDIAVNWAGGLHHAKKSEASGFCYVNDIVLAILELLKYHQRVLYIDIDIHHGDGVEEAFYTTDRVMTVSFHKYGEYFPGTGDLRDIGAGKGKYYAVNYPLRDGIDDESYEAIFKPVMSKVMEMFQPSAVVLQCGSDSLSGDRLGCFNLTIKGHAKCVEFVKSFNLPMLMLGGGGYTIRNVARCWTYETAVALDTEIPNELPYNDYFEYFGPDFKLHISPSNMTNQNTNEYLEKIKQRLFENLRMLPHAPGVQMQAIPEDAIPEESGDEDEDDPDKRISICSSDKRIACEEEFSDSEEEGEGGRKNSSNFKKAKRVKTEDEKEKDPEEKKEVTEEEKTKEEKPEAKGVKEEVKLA
T3 sequence (Q92769 whole entry): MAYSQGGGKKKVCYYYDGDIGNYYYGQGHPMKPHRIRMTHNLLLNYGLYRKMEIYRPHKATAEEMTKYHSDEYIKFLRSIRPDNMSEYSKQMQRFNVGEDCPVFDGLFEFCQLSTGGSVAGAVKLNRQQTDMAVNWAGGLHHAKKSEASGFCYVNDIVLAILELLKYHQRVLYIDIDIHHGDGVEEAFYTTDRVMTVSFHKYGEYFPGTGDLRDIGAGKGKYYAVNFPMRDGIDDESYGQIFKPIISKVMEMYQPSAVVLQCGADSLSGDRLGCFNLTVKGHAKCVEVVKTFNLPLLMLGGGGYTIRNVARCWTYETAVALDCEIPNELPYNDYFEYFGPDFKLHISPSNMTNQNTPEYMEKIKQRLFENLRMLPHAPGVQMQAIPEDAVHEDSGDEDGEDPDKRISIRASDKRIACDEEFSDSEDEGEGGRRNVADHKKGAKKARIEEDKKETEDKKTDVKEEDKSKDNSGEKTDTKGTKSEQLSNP

CN(C(=O)CCCNc1cccc2c1C(=O)N(C1CCC(=O)NC1=O)C2=O)c1ccc(NC(=O)CCCCCCC(=O)NO)cc1 (stereo not drawn) [Compound 1, N^1-(4-(4-((2-(2,6-dioxopiperidin-3-yl)-1,3-dioxoisoindolin-4-yl)amino)-N-methylbutanamido)phenyl)-N^8-hydroxyoctanediamide]
IC50 (HDAC3): 1440 nM
IC50 (HDAC1): 1040 nM
IC50 (HDAC2): 2470 nM
IC50 (HDAC6): 48.5 nM
IC50 (HDAC8): 621 nM
IC50 (HDAC5): 5750 nM

CN(C(=O)CCCCCCCNc1cccc2c1C(=O)N(C1CCC(=O)NC1=O)C2=O)c1ccc(NC(=O)CCCCCCC(=O)NO)cc1 (stereo not drawn) [Compound 3, N^1-(4-(8-((2-(2,6-dioxopiperidin-3-yl)-1,3-dioxoisoindolin-4-yl)amino)-N-methyloctanamido)phenyl)-N^8-hydroxyoctanediamide]
IC50 (HDAC3): 3430 nM
IC50 (HDAC1): 4410 nM
IC50 (HDAC2): 14400 nM
IC50 (HDAC6): 40.1 nM
IC50 (HDAC8): 400 nM
IC50 (HDAC5): 7830 nM
